In paper PMC3961306, “Comparison of the Cancer Gene Targeting and Biochemical Selectivities of All Targeted Kinase Inhibitors Approved for Clinical Use” (PLoS ONE, 2014):

Columns and labels:
Assay in all cases: Kinase profiling in a biochemical assay panel (mobility shift assays and ELISA), %-inhibition at 1 μM; selectivity entropy
[1] = target: panel of more than 300 wild-type and mutant kinases (313 kinase panel) (Homo sapiens, UniProt Q9HBH9)
[2] = target: panel of more than 300 wild-type and mutant kinases (313 kinase panel) (Homo sapiens, UniProt Q04759)
[3] = target: panel of more than 300 wild-type and mutant kinases (313 kinase panel) (Homo sapiens, UniProt Q16644)
[4] = target: panel of more than 300 wild-type and mutant kinases (313 kinase panel) (Homo sapiens, UniProt P10721, V560G)
[5] = target: panel of more than 300 wild-type and mutant kinases (313 kinase panel) (Homo sapiens, UniProt Q9NYA1)
[6] = target: T1, panel of more than 300 wild-type and mutant kinases (313 kinase panel) (Homo sapiens, UniProt Q13237)
T1 sequence (Q13237 1-762): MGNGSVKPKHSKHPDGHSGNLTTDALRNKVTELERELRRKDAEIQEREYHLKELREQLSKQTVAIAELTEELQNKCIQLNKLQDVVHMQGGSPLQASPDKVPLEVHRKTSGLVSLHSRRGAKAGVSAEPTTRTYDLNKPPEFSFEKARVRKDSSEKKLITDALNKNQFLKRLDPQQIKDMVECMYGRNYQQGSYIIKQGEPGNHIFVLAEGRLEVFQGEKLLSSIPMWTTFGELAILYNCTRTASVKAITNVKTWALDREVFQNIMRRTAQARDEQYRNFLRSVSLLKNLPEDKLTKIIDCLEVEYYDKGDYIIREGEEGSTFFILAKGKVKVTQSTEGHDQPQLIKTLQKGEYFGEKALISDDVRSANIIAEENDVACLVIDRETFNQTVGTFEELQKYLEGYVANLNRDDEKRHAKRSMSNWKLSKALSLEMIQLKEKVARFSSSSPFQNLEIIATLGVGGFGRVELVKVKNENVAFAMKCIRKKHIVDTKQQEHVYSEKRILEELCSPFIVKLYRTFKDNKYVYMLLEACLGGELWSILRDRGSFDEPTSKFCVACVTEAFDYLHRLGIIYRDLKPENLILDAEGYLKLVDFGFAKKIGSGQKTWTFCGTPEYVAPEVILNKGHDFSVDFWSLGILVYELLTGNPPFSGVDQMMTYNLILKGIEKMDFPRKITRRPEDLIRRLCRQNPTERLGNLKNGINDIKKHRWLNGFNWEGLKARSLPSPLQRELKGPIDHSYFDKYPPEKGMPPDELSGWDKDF

[7] = target: panel of more than 300 wild-type and mutant kinases (313 kinase panel) (Homo sapiens, UniProt P06493)
[8] = target: panel of more than 300 wild-type and mutant kinases (313 kinase panel) (Homo sapiens, UniProt Q16539)
[9] = target: panel of more than 300 wild-type and mutant kinases (313 kinase panel) (Homo sapiens, UniProt Q9UM73, F1174L)
[10] = target: T2, panel of more than 300 wild-type and mutant kinases (313 kinase panel) (Homo sapiens, UniProt O14757)
T2 sequence (O14757 1-476): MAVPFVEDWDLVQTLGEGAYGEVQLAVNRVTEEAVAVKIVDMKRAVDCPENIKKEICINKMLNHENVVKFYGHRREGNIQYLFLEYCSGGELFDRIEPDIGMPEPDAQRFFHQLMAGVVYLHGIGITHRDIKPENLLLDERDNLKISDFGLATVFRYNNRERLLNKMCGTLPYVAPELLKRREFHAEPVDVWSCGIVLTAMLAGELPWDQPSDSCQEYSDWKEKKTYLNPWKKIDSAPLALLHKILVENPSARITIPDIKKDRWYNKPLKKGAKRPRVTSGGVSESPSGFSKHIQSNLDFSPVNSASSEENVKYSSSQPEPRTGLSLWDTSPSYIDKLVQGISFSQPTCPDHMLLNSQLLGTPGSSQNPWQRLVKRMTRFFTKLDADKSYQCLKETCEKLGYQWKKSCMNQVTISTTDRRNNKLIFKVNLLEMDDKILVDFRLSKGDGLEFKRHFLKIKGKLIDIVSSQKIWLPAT

[11] = target: panel of more than 300 wild-type and mutant kinases (313 kinase panel) (Homo sapiens, UniProt Q13153)
[12] = target: panel of more than 300 wild-type and mutant kinases (313 kinase panel) (Homo sapiens, UniProt P22607, K650M)
[13] = target: panel of more than 300 wild-type and mutant kinases (313 kinase panel) (Homo sapiens, UniProt P16234, T674I); conditions: kinase PDGFRα(T674I); 1 μM
[14] = kinase MAPKAPK3, compound at 1 μM
[15] = kinase KIT(V560G), compound at 1 μM
[16] = kinase CDC2/CycB1, 1 μM compound
[17] = kinase ALK(F1174L), 1 μM compound
[18] = kinase FGFR3(K650M), compound at 1 μM

Chain of panel of more than 300 wild-type and mutant kinases (313 kinase panel) (Homo sapiens, UniProt P22607, K650M) (P22607 23-806 K650M): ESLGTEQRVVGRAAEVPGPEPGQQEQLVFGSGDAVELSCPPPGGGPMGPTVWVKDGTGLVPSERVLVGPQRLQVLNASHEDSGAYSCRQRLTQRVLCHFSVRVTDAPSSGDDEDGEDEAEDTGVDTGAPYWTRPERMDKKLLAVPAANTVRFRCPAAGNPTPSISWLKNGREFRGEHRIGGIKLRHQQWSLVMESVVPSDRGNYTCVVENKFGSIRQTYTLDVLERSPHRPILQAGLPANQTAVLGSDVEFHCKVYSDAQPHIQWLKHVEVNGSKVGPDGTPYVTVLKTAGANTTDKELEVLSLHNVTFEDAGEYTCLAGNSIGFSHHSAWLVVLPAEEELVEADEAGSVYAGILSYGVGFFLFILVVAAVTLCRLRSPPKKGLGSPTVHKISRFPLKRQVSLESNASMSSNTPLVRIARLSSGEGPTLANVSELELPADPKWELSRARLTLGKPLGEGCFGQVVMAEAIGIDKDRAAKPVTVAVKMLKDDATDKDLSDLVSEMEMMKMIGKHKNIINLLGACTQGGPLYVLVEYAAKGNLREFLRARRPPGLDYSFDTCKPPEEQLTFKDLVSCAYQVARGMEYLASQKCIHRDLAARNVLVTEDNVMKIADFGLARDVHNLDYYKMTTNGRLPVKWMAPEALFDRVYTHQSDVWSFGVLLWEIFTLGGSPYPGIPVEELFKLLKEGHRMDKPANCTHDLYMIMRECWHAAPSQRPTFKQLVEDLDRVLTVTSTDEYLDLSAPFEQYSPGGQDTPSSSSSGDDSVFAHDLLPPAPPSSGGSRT
Chain of panel of more than 300 wild-type and mutant kinases (313 kinase panel) (Homo sapiens, UniProt Q04759) (Q04759 whole entry, change not shown): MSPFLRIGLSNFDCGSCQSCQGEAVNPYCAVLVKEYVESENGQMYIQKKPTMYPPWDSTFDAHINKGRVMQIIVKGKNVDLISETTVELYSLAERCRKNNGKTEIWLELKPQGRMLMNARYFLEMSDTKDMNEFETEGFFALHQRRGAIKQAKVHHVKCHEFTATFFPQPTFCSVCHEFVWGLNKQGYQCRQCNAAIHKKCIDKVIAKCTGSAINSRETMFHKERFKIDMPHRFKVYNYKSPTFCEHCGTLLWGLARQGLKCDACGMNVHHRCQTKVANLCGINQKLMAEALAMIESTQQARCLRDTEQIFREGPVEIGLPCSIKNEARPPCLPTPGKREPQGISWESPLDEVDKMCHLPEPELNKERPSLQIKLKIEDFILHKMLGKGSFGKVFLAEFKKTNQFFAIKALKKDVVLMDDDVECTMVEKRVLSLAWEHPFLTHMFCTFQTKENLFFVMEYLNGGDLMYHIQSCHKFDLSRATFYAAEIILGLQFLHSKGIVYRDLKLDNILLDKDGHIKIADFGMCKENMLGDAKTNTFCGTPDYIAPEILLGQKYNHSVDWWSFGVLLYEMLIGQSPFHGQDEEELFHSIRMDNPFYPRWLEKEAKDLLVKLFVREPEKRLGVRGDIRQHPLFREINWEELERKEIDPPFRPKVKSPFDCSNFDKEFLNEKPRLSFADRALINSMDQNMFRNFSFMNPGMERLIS
Chain of panel of more than 300 wild-type and mutant kinases (313 kinase panel) (Homo sapiens, UniProt P10721, V560G) (P10721 26-976 V560G): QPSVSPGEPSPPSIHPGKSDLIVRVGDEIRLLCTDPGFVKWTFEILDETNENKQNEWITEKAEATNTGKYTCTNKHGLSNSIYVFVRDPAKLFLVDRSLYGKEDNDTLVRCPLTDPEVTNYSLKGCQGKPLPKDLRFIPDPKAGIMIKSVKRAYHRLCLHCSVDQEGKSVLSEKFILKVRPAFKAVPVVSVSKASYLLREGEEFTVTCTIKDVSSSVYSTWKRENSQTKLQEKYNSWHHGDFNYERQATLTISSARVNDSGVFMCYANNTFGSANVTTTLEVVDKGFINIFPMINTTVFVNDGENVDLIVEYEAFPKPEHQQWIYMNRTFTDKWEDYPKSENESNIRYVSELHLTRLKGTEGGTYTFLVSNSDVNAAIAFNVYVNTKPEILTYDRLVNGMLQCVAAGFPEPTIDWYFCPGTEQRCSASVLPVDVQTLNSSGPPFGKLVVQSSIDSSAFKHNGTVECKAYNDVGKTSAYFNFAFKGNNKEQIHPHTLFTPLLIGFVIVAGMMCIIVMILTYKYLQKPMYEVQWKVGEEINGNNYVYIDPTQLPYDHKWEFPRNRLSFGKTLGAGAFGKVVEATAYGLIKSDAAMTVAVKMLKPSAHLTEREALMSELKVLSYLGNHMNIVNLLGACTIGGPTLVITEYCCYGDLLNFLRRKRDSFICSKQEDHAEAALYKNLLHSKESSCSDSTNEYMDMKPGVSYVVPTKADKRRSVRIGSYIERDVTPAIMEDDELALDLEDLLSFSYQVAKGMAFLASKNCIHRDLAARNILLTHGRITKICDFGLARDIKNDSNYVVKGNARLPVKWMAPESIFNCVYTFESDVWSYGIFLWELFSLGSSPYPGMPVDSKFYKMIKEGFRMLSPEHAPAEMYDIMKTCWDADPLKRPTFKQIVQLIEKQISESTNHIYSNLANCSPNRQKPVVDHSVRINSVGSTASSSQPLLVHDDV
Chain of panel of more than 300 wild-type and mutant kinases (313 kinase panel) (Homo sapiens, UniProt Q16644) (Q16644 whole entry, stated change not applied): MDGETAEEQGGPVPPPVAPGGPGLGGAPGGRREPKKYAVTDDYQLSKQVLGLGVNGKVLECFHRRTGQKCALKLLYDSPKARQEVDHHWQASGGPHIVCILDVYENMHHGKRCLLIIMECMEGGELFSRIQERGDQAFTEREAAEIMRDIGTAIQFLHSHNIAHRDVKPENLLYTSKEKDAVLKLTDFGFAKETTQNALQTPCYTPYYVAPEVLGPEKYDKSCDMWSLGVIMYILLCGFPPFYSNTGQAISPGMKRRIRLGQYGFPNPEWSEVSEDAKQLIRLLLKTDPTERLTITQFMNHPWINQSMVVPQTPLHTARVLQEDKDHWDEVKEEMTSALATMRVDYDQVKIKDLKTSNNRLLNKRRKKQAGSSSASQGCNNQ
Chain of panel of more than 300 wild-type and mutant kinases (313 kinase panel) (Homo sapiens, UniProt P16234, T674I) (P16234 24-1089 T674I): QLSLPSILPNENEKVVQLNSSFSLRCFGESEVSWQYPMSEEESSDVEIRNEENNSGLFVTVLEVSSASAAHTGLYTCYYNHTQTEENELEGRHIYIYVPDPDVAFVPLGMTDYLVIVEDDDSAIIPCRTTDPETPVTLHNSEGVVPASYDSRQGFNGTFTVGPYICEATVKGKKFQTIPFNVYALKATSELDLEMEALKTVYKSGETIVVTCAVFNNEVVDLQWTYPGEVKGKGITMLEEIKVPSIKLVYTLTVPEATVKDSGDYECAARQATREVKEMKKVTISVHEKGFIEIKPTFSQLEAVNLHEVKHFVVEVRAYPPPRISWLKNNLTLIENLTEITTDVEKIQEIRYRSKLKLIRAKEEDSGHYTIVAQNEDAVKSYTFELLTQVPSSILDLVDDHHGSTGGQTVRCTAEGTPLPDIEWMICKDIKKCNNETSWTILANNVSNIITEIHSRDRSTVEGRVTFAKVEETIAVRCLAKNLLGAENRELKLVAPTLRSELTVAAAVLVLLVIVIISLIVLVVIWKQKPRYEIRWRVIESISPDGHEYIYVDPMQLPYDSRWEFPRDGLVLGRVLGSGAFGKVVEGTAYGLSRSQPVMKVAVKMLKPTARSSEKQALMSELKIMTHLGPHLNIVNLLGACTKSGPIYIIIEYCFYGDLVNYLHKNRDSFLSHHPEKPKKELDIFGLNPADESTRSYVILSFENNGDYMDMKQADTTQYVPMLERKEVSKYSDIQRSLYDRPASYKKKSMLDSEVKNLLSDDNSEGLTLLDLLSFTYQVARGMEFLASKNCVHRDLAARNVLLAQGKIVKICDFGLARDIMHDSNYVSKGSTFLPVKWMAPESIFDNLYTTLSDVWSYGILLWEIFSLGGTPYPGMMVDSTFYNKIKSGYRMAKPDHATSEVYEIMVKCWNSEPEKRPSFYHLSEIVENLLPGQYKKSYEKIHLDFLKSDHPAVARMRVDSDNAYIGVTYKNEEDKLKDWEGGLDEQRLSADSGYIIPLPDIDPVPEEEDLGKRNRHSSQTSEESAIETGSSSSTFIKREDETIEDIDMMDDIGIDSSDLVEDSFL
Chain of panel of more than 300 wild-type and mutant kinases (313 kinase panel) (Homo sapiens, UniProt Q16539) (Q16539 whole entry, stated change not applied): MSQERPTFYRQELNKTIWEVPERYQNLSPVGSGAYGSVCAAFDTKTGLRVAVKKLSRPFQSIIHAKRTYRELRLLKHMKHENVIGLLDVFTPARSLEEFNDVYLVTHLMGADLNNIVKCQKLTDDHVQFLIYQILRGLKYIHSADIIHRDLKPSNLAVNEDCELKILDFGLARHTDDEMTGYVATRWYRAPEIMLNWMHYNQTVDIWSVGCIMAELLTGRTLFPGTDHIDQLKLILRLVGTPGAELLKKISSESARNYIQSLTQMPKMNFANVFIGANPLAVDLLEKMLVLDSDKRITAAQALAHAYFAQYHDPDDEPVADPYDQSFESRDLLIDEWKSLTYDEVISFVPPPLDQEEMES

Row | Compound | %-inhibition of MNK2 ([1]; kinase MNK2, 1 μM) [%] | %-inhibition of PKCθ ([2]; kinase PKCθ, 1 μM) [%] | %-inhibition of MAPKAPK3 [3, 14] [%] | %-inhibition of KIT(V560G) [4, 15] [%] | %-inhibition of PDGFRα(T674I) [13] [%] | %-inhibition of SPHK1 ([5]; kinase SPHK1, 1 μM) [%] | %-inhibition, CGK2 ([6]; kinase CGK2, 1 μM compound) [%] | %-inhibition, CDC2/CycB1 [7, 16] [%] | %-inhibition of p38α ([8]; kinase p38α, 1 μM) [%] | %-inhibition, ALK(F1174L) [9, 17] [%] | %-inhibition, CHK1 ([10]; kinase CHK1, 1 μM compound) [%] | %-inhibition of PAK1 ([11]; kinase PAK1, 1 μM) [%] | %-inhibition of FGFR3(K650M) [12, 18] [%] | also measured
1 | C#Cc1cccc(Nc2ncnc3cc(OCCOC)c(OCCOC)cc23)c1 [erlotinib] | – | – | – | – | – | – | – | – | – | – | – | – | – | %-inhibition of MNK2 ([1]; 1 µM): 35%; %-inhibition of PKCθ ([2]; 1 µM): 4.46%; %-inhibition of MAPKAPK3 ([3]; 1 µM): 0.621%; %-inhibition of KIT(V560G) ([4]; 1 µM): 17%; %-inhibition of SPHK1 ([5]; 1 µM): -14%; %-inhibition, CGK2 ([6]; 1 µM): -1.7%; %-inhibition, CDC2/CycB1 ([7]; 1 µM): 6%; %-inhibition of p38α ([8]; 1 µM): -0.474%; %-inhibition, ALK(F1174L) ([9]; 1 µM): 41%; %-inhibition, CHK1 ([10]; 1 µM): 14%; %-inhibition of PAK1 ([11]; 1 µM): 6.37%; %-inhibition of FGFR3(K650M) ([12]; 1 µM): 87%
2 | COc1cc2nccc(Oc3ccc(NC(=O)C4(C(=O)Nc5ccc(F)cc5)CC4)cc3)c2cc1OC [cabozantinib] | 97 | -4.28 | -9 | 96 | 97 | -12 | -2.55 | -17 | 37 | 6.54 | 4.42 | -2.55 | 10 | –
3 | CCCS(=O)(=O)Nc1ccc(F)c(C(=O)c2c[nH]c3ncc(-c4ccc(Cl)cc4)cc23)c1F [vemurafenib] | 27 | -3 | 12 | 32 | 1.49 | -11 | -2.26 | 10 | 10 | -1.36 | 4 | -5 | 8 | –
4 | CNC(=O)c1cc(Oc2ccc(NC(=O)Nc3ccc(Cl)c(C(F)(F)F)c3)c(F)c2)ccn1 [regorafenib] | 73 | -7.47 | -15 | 99 | 92 | -14 | -1.78 | 0.529 | 94 | -7.49 | -3 | -8 | 101 | –
5 | CO[C@H]1C[C@@H]2CC[C@@H](C)[C@@](O)(O2)C(=O)C(=O)N2CCCC[C@H]2C(=O)O[C@H]([C@H](C)C[C@@H]2CC[C@@H](OCCO)[C@H](OC)C2)CC(=O)[C@H](C)/C=C(\C)[C@@H](O)[C@@H](OC)C(=O)[C@H](C)C[C@H](C)/C=C/C=C/C=C/1C [everolimus] | 1.88 | -8 | -15 | -6 | 0.248 | -16 | -4.58 | -19 | -4.27 | -3.68 | 4 | -5.39 | 2.71 | –
6 | CC(=O)Nc1cccc(-n2c(=O)n(C3CC3)c(=O)c3c(Nc4ccc(I)cc4F)n(C)c(=O)c(C)c32)c1 [trametinib] | -11 | 0.388 | -9 | 1 | -0.248 | -11 | -2.61 | 8 | -4 | -7 | -0.719 | – | -0.169 | %-inhibition of PAK1 ([11]; 1 µM): -1.35%
7 | CO[C@H]1C[C@@H]2CC[C@@H](C)[C@@](O)(O2)C(=O)C(=O)N2CCCC[C@H]2C(=O)O[C@H]([C@H](C)C[C@@H]2CC[C@@H](OC(=O)C(C)(CO)CO)[C@H](OC)C2)CC(=O)[C@H](C)/C=C(\C)[C@@H](O)[C@@H](OC)C(=O)[C@H](C)C[C@H](C)/C=C/C=C/C=C/1C [temsirolimus] | -14 | -2.62 | -11 | -5 | -2.73 | -14 | -2.84 | -23 | -5 | -6 | 4.42 | -3.8 | 0.626 | –
